Experimental data as given in PMC6337126, “Thiophene Derivatives as Anticancer Agents and Their Delivery to Tumor Cells Using Albumin Nanoparticles” (Molecules, 2019).
Values after ≈ are worked out from the molar mass of the structure shown. Values joined by “and” are separate entries in the source; they are usually repeats but may differ in a detail not shown here. Equal values may be shown once. Read-outs that look alike come from different tables or passages of the source. Blank lines part the entries; values can stand above or below the compound they belong to.

Legend:
[1] = Solubility of TP 5 in solvents by HPLC; format: physicochemical
Method: (§1) In order to investigate the solubility and stability of TP 5, a certain amount of TP 5 was dissolved in several solvents (deionized water, PBS buffered solution pH 7.4, ethanol, ethyl acetate, and dichloromethane) and make it saturate. The solubility was measured by HPLC. In addition, for the stability of TP 5, 200.0 μg/mL of TP 5 was placed in different temperature (25.0, 40.0 and 60.0) and the concentration was detected and compared with practical concentration.

[2] = tested on: SMMC-7721; experiment: MTT screening assay of TPs; format: cell-based
Method: (§2) HepG2 and SMMC-7721 cell lines were cultured and grown in complete DMEM containing 10% FBS and 1% streptomycin and penicillin in 5% CO2 at 37 °C. TPs were fabricated using the method as described previously. The cytotoxicity of TPs in HepG2 and SMMC-7721 cell in vitro was evaluated by MTT assay. Firstly, cells with a density of 8 × 10^4 cells per wells were placed and cultured in 96-well plates and incubated 24 h at 37 °C. Then, 100 μL of TPs DMEM solution (30 μg/mL) was added into each well. After incubated 24 h, 10 μL of MTT solution (5.0 mg/mL) was added and incubated 4 h. Finally, the medium was removed, 100 μL of DMSO was added and OD values were tested using microplate reader (Synergy4, multi-mode microplate reader, BioTek, Winooski, VT, USA) at 490 nm when the formazan precipitate was completely dissolved. It is worth noting that wells containing normal medium without TPs were regarded as controls. In addition, wells which add the medium with paclitaxel were regarded as a positive control.

[3] = tested on: HepG2; experiment: MTT screening assay of TPs; format: cell-based
Method: as §2

[4] = tested on: SMMC-7721; experiment: Mitochondrial transmembrane potential assay (JC-1); format: cell-based; conditions: SMMC-7721, 30.0 μg/mL, 12 h
Method: (§3) In general, cell apoptosis is often accompanied by the transformation of mitochondrial transmembrane potential (ΔΨm). […] In order to verify whether TP 5-NPs can induce cancer cell apoptosis, ΔΨm was measured. Firstly, HepG2 and SMMC-7721 cell with a density of 2 × 10^5 cells per wells in 1.0 mL of medium all were seeded in a 12-well plate and incubated for 24 h. After that, 30.0 μg/mL of TP 5-NPs or TP 5 was added and cultured for another 12 h, in which wells containing normal medium without drugs were regarded as controls. Cells were washed using PBS for three times, incubated for 10 min in 10.0 μg/mL of JC-1 dye in the dark. The level of mitochondrial depolarization was observed by inverted fluorescent microscope and quantitatively analyzed by imaging software Image J [26].

[5] = tested on: HepG2; experiment: Mitochondrial transmembrane potential assay (JC-1); format: cell-based; conditions: HepG2, 30.0 μg/mL, 12 h
Method: as §3

[6] = tested on: SMMC-7721; experiment: Cytotoxicity of TP 5-NPs in vitro (MTT); format: cell-based
Method: (§4) The cytotoxicity of TP 5-NPs in two cell lines in vitro was assessed. Briefly, cells with a density of 8 × 10^4 cells per wells were placed and cultured in 96-well plates. After incubated 24 h at 37 °C, 100 μL of medium containing different concentrations of TP 5-NPs or TP 5 (10.0, 20.0, 30.0, 40.0 and 50.0 μg/mL) was added to each well and cultured another 24, 48 or 72 h at 37 °C (wells containing the normal medium without formulation were regarded as controls). After that, 10.0 μL of MTT (5.0 mg/mL) was added into each well and incubated for 4.0 h. Finally, the medium was removed and 100.0 μL of DMSO was added. OD values were tested by microplate reader at 490 nm when the formazan precipitate was completely dissolved.

[7] = tested on: HepG2; experiment: Cytotoxicity of TP 5-NPs in vitro (MTT); format: cell-based
Method: as §4

[8] = tested on: SMMC-7721; experiment: ROS assay (DCFH-DA); format: cell-based; conditions: SMMC-7721, 30.0 μg/mL, 12 h
Method: (§5) The experimental procedure was similar to the part 4.2.8. Similarly, HepG2 and SMMC-7721 cell were seeded in a 12-well plate and incubated for 24 h. 30.0 μg/mL of TP 5-NPs or TP 5 was added and cultured for another 12 h. After that, 10 μM 2′, 7′-dichlorodihydrofluorescein diacetate (DCFH-DA, Sigma-Aldrich, Saint Louis, MO, USA) was added and incubated for 10.0 min in the dark. Inversed fluorescent microscope was applied to observe fluorescence images.

[9] = tested on: HepG2; experiment: ROS assay (DCFH-DA); format: cell-based; conditions: HepG2, 30.0 μg/mL, 12 h
Method: as §5

[10] = Stability of TP 5 at different temperatures by HPLC; format: physicochemical; conditions: for Detected Concentration: calculated concentration 200.0 μg/mL, single replicates
Method: as §1

[11] = In vitro drug release by dialysis method; format: physicochemical; conditions: over 120 h, PBS containing 20.0% ethanol, 37 °C
Method: The detailed process was as follows: first, TP 5 and TP 5-NPs were all dissolved or dispersed in 1.0 mL PBS (pH 7.4), respectively. Then, they were placed in a dialysis bag (the molecule weight cutoff was 12.0 kD). After that, they were placed in 50.0 mL release medium PBS containing 20.0% v/v ethanol and maintained at 37 °C with continuous stirring at 150 rpm. Sink conditions were maintained. At predetermined time intervals, 1.0 mL release medium was withdrawn and replaced with 1.0 mL 37 °C fresh release medium. Finally, the released capacity of TP 5 was detected by HPLC.

solubility ([1]; PBS containing 20.0% v/v ethanol, PBS pH 7.4 containing 20.0% v/v ethanol, read-out: Solubility in release (acceptor) medium): 88.2 µg/mL (≈ 250 µM)
solubility ([1]; aqueous buffer, thermodynamic from solid, PBS buffered solution (pH 7.4), 25 °C, read-out: Solubility): 27.6 µg/mL (≈ 78.5 µM)
solubility ([1]; deionized water, 25 °C, water, thermodynamic from solid, read-out: Solubility): 26.4 µg/mL (≈ 74.8 µM)
solubility ([1]; dichloromethane, 25 °C, organic solvent or mixture, thermodynamic from solid, read-out: Solubility): > 13000 µg/mL
solubility ([1]; ethanol, 25 °C, organic solvent or mixture, thermodynamic from solid, read-out: Solubility): 2480 µg/mL (≈ 7040 µM)
solubility ([1]; ethyl acetate, 25 °C, organic solvent or mixture, thermodynamic from solid, read-out: Solubility): > 6800 µg/mL
thermal stability of structure ([10]; temperature increased to 60 °C, HPLC): stable
drug released [11]: ~ 20%
Compound: Cc1cc2c(s1)C1=NC(=O)OC1(c1ccc(Cl)c(Cl)c1)CC2 (centres unmarked) [TP 5]
antitumor activity compared with other TPs and paclitaxel ([2]; SMMC-7721, 30.0 μg/mL, 24 h): higher activity than other TPs including paclitaxel
antitumor activity compared with other TPs and paclitaxel ([3]; HepG2, 30.0 μg/mL, 24 h): higher activity than other TPs including paclitaxel
JC-1 polymer/monomer (red/green) fluorescence ratio [4]: lower than those of controls
JC-1 polymer/monomer (red/green) fluorescence ratio [5]: lower than those of controls
cytotoxicity ([6]; SMMC-7721, 10.0-50.0 μg/mL, 24, 48 and 72 h): dose and time-dependent cytotoxicity
concentration above which cells were completely killed ([6]; SMMC-7721, MTT, 24, 48 and 72 h): exceeds 40.0 μg/mL
cytotoxicity ([7]; HepG2, 10.0-50.0 μg/mL, 24, 48 and 72 h): dose and time-dependent cytotoxicity
concentration above which cells were completely killed ([7]; HepG2, MTT, 24, 48 and 72 h): exceeds 40.0 μg/mL
levels of ROS [8]: higher than those of control cells
levels of ROS [9]: higher than those of control cells
Detected Concentration ([10]; 25.0 °C): 201.18 µg/mL and 200.53 µg/mL and 199.88 µg/mL
Detected Concentration ([10]; 40.0 °C): 202.66 µg/mL and 200.05 µg/mL and 202.01 µg/mL
Detected Concentration ([10]; 60.0 °C): 202.28 µg/mL and 202.93 µg/mL and 201.19 µg/mL

IC50 ([2]; Homo sapiens, SMMC-7721, 24 h): 35.3 µg/mL
IC50 ([3]; Homo sapiens, HepG2, 24 h): 35.9 µg/mL
Compound: CC(=O)O[C@H]1C(=O)[C@@]2(C)[C@H]([C@H](OC(=O)c3ccccc3)[C@]3(O)C[C@H](OC(=O)[C@H](O)[C@@H](NC(=O)c4ccccc4)c4ccccc4)C(C)=C1C3(C)C)[C@]1(OC(C)=O)CO[C@@H]1C[C@@H]2O [paclitaxel, reference compound]
